In paper PMC3939009, “Thrombin inhibitory activity of some polyphenolic compounds” (Medicinal Chemistry Research, 2013):
Like-named read-outs stand apart in the source and are kept apart here. Each block holds one molecule with its values, some of them ahead of it.

Key:
human thrombin [1] = biological target: T1, human thrombin (Homo sapiens, UniProt P00734); assay: Amidolytic activity of thrombin (hydrolysis of chromogenic substrate D-Phe-Pip-Arg-pNA); type: biochemical; set-up: Thrombin, also known as an active plasma coagulation factor II; purchased Sigma-Aldrich Chemical Co. (St. Louis, MO, USA) T7009; host or cells: purified from human plasma
Method: (§1) All tested compounds were dissolved in 50 % DMSO to the initial concentration of 10 mM; other solutions of compounds were also prepared in 50 % DMSO (prepared in 50 mM TBS, pH 7.4). The final concentration of DMSO in thrombin samples was 5 %. To prepare thrombin control samples, the same volume of solvent (50 % DMSO prepared in 50 mM TBS, pH 7.4) was added as in the case of the compound volume and warmed for 10 min to 37 °C.
To each reaction well, 40 μl of 3 mM chromogenic substrate was added. To initiate the chromogenic reaction, 280 μl of control thrombin (without tested compounds) or thrombin after preincubation with a polyphenolic compound to every reaction well in the same moment was added. The absorbance value was monitored every 12 s for 10 min. The maximal velocity of the reaction (V max, Δm OD/min) for each absorbance curve was determined. IC50 value (parameter) for every polyphenolic compound from inhibition curves was estimated.

human thrombin [2] = assay: Thrombin-induced platelet aggregation (turbidimetric); type: cell-based
Method: Blood samples in 0.32 % sodium citrate from healthy volunteers without cardiovascular disorders were collected, untreated with antiplatelet drugs. […] Platelets were isolated from PRP using BSA–Sepharose 2B gel filtration method according to Walkowiak et al. ([2000]). […] In these preparations, to nine volumes of thrombin one volume of polyphenolic compounds was added (final thrombin concentration was 15.8 nM). All tested compounds were dissolved in 50 % DMSO to the initial concentration of 10 mM; other solutions of compounds were also prepared in 50 % DMSO (prepared in 50 mM TBS, pH 7.4). […] The platelet aggregation was measured by turbidimetric method (Saluk-Juszczak et al., [2007]) using dual-channel Chrono-log optical aggregometer (Chronolog, USA). […] Platelet suspensions were pre-warmed at 37 °C with stirring.

human thrombin [3] = biological target: T1, human thrombin; assay: BIAcore (SPR) analysis of binding to immobilized thrombin; set-up: Thrombin, also known as an active plasma coagulation factor II; purchased Sigma-Aldrich Chemical Co. (St. Louis, MO, USA) T7009; conditions: for Response (RU): analyte 1,000 μM, thrombin immobilized on CM5 chip
Method: The biosensor assays were performed using the BIAcore 1000 biosensor system. All biosensor analyses were performed with a phosphate-buffered saline (PBS), pH 7.4, as a running buffer. […] The immobilization of thrombin on a biosensor carboxylmethyl dextran surface was performed according to the BIA applications Handbook (BIAcore, [1994]). The process of protein immobilization was performed on a sensor chip CM5 surface by the positively charged functional groups of protein amino acids. The immobilization process consisted of four steps: preconcentration, activation, ligand immobilization and deactivation of the residual NHS esters. […] The temperature during the whole experiment was also constant and was set to 25.0 °C. […] Each of these solutions (10 μl) was injected into an empty sensor chip channel. […] The amount of injected activation mixture was modified, to regulate the amount of immobilized ligand. […] The conditions of the latter experiments were established by numerous pre-tests. The assessed parameters included: the buffer flow rate, the volume of analyte injection, the concentration of analytes, types and concentration of regenerators. […] For each injection of analyte solution, the volume used was 100 μl. After injection of analyte was completed, the dissociation step occurred and the level of the interaction ligand-analyte was measured. During dissociation, the particles non-covalently bound to the ligand were washed out from the working channel. […] To do these calculations, the formulas presented below were used: the association rate […]]; the dissociation rate -d[AB]/dt=kd·[AB]; the equilibrium constants: KA=[AB]/[A]·[B]=ka/kd KD=[A]·[B]/[AB]=kd/ka.

human thrombin [4] = biological target: T1, human thrombin; assay: Analysis of thrombin inhibition parameters (Lineweaver–Burk curves); type: biochemical; set-up: Thrombin, also known as an active plasma coagulation factor II; purchased Sigma-Aldrich Chemical Co. (St. Louis, MO, USA) T7009; conditions: for k cat: compound at IC50 concentration, k cat = V max/E 0, control 29.1; for Type of inhibition: from Lineweaver–Burk curves; for V max of chromogenic substrate hydrolysis by thrombin / K m of chromogenic substrate hydrolysis by thrombin: thrombin incubated with compound at IC50 concentration; for V max of chromogenic substrate hydrolysis by thrombin: control 30.7; for K m of chromogenic substrate hydrolysis by thrombin: control 158.7
Method: Absorbance was monitored every 12 s for 10 min in a 96-well microplate reader. The velocity of reaction was expressed as the increase in product (pNA) over time (∆ μmol/min) using a computer program Mikcroplate Manager® 8 and the extinction coefficient of p-nitroaniline. […] Then, the Lineweaver–Burk ([1934]) curves for thrombin in the presence and in the absence of polyphenol compounds were plotted. The Lineweaver–Burk equation, which is a transformation of the Michaelis–Menten model, looks as follows: 1/V=Km/Vmax·1/[S]+1/Vmax

human thrombin [5] = biological target: T1, human thrombin; assay: SDS-PAGE analysis of thrombin-induced cross-linked fibrin formation; type: biochemical; set-up: Thrombin, also known as an active plasma coagulation factor II; purchased Sigma-Aldrich Chemical Co. (St. Louis, MO, USA) T7009; host or cells: purified from human plasma
Method: as §1, with “In these preparations, to nine volumes of thrombin one volume of polyphenolic compounds was added (final thrombin concentration was 15.8 nM). All” for “All”
The reactions incubated at 37 °C were stopped after 5, 15 and 30 min by adding 150 μl of lysis buffer (0.125 M Tris/HCl, 4 % SDS, 8 M urea, 10 % β-mercaptoethanol, pH 6.8). Samples were subjected to SDS-PAGE (polyacrylamide concentration—7.5 %) using Mini-Protean Electrophoresis Cell (Bio-Rad, Hercules, CA). Proteins were stained with Coomassie Brilliant Blue R250 (CBB).

human thrombin [6] = biological target: T1, human thrombin; assay: Thrombin-induced fibrinogen polymerization; type: biochemical; set-up: Thrombin, also known as an active plasma coagulation factor II; purchased Sigma-Aldrich Chemical Co. (St. Louis, MO, USA) T7009; conditions: thrombin preincubated with compound; for Effect on thrombin ability to induce fibrinogen polymerization: 10 min 37 °C; for Concentration causing total inhibition of thrombin activity (fibrin polymerization): Vmax of fibrinogen polymerization at 595 nm
Method: In these preparations, to nine volumes of thrombin one volume of polyphenolic compounds was added (final thrombin concentration was 15.8 nM). All tested compounds were dissolved in 50 % DMSO to the initial concentration of 10 mM; other solutions of compounds were also prepared in 50 % DMSO (prepared in 50 mM TBS, pH 7.4). […] Polymerization of fibrin was monitored at 595 nm using a 96-well microtiter plate reader. To each reaction well of the microtiter plate, 100 μl of fibrinogen (3 mg/ml) in 50 mM TBS and 5 mM CaCl2, pH 7.4, were added. […] The maximal velocity of the polymerization process (V max, Δm OD/min) for each absorbance curve was determined (Nowak et al., [2007]).

[7] = at 375 μM substrate concentration, compounds 0.1–1,000 μM, preincubation 10 min 37 °C, read-out: IC50, amidolytic activity of human thrombin
[8] = ten times IC50: cyanidin […], quercetin 15 μM, silybin 250 μM

Compound: COc1cc(C2Oc3cc([C@H]4Oc5cc(O)cc(O)c5C(=O)[C@@H]4O)ccc3OC2CO)ccc1O (stereo in doubt) [Silybin, silybin]
IC50 (human thrombin [1]; [7]): 25 µM
Platelet aggregation, % of control (human thrombin [2]; compound 1,000 μM preincubated with thrombin): 43%
K A, equilibrium association constant (human thrombin [3]; 5 sensorgrams, 50 to 1,000 μM): 53900 M⁻¹
Kd (human thrombin [3]; 5 sensorgrams, 50 to 1,000 μM, read-out: K D, equilibrium dissociation constant): 18.6 µM
kon (human thrombin [3]; 5 sensorgrams, 50 to 1,000 μM, read-out: k a, association rate): 7.11 M⁻¹ s⁻¹
koff (human thrombin [3]; 5 sensorgrams, 50 to 1,000 μM, read-out: k d, dissociation rate): 0.000132 s⁻¹
Response (RU) (human thrombin [3]): 1,424 RU
k cat (human thrombin [4]): 25.6 s⁻¹
Type of inhibition (human thrombin [4]): competitive inhibitors
V max of chromogenic substrate hydrolysis by thrombin (human thrombin [4]): 27 10^−6 mol/min
K m of chromogenic substrate hydrolysis by thrombin (human thrombin [4]): 550.5 10^−6 M
Effect on formation of γ–γ chains and α-polymers (human thrombin [5]; [8]): slightly reduced the formation of γ–γ chains and α-polymers
Effect on thrombin ability to induce fibrinogen polymerization (human thrombin [6]): inhibition of thrombin ability to induce fibrinogen polymerization
Concentration causing total inhibition of thrombin activity (fibrin polymerization) (human thrombin [6]): > 1,000 μM

Compound: Oc1cc(O)c2cc(O)c(-c3ccc(O)c(O)c3)[o+]c2c1 [Cyanidin, cyanidin]
Platelet aggregation, % of control (human thrombin [2]; compound 5 μM preincubated with thrombin): 10%
Response (RU) (human thrombin [3]): 2,251 RU
k cat (human thrombin [4]): 28.7 s⁻¹
Type of inhibition (human thrombin [4]): competitive inhibitors
V max of chromogenic substrate hydrolysis by thrombin (human thrombin [4]): 30.3 10^−6 mol/min
K m of chromogenic substrate hydrolysis by thrombin (human thrombin [4]): 600.6 10^−6 M
Effect on formation of γ–γ chains and α-polymers (human thrombin [5]; at IC50 concentration of amidolytic inhibition: cyanidin […], quercetin 1.5 μM): also inhibited the formation of γ–γ chains and α-polymers
Effect on formation of γ–γ chains and α-polymers (human thrombin [5]; [8]): significantly inhibited the formation of γ–γ chains and α-polymers
Effect on thrombin ability to induce fibrinogen polymerization (human thrombin [6]): inhibition of thrombin ability to induce fibrinogen polymerization
Concentration causing total inhibition of thrombin activity (fibrin polymerization) (human thrombin [6]): 5 µM

Compound: O=C(O)c1cc(O)c(O)c(O)c1 [Gallic acid, gallic acid]
IC50 (human thrombin [1]): > 1000 µM

Compound: O=c1c(-c2ccc(O)cc2)coc2cc(O)cc(O)c12 [Genistein, genistein]
IC50 (human thrombin [1]): > 1000 µM

Compound: COc1ccc([C@@H]2CC(=O)c3c(O)cc(O[C@@H]4O[C@H](CO[C@@H]5O[C@@H](C)[C@H](O)[C@@H](O)[C@H]5O)[C@@H](O)[C@H](O)[C@H]4O)cc3O2)cc1O [Hesperidin, hesperidin]
IC50 (human thrombin [1]; [7]): > 1000 µM

Compound: C[C@@H]1O[C@@H](O[C@H]2[C@H](Oc3cc(O)c4c(c3)O[C@H](c3ccc(O)cc3)CC4=O)O[C@H](CO)[C@@H](O)[C@@H]2O)[C@H](O)[C@H](O)[C@H]1O [Naringin, naringin]
IC50 (human thrombin [1]; [7]): > 1000 µM

Compound: Oc1cc(O)c2c(c1)O[C@H](c1ccc(O)c(O)c1)[C@H](O)[C@H]2c1c(O)cc(O)c2c1O[C@H](c1ccc(O)c(O)c1)[C@H](O)C2 [Procyanidin B2, procyanidin B2]
IC50 (human thrombin [1]; [7]): > 1000 µM

Compound: C[C@@H]1O[C@@H](OC[C@H]2O[C@@H](Oc3c(-c4ccc(O)c(O)c4)oc4cc(O)cc(O)c4c3=O)[C@H](O)[C@@H](O)[C@@H]2O)[C@H](O)[C@H](O)[C@H]1O [Rutin, rutin]
IC50 (human thrombin [1]; [7]): > 1000 µM

Other lines, results leading:

IC50 (human thrombin [1]; [7]): > 1000 µM
Compound: O=C(O)Cc1ccc(O)cc1 [4-Hydroxyphenylacetic acid, 4-hydroxyphenylacetic acid]

IC50 (human thrombin [1]; [7]): > 1000 µM
Compound: O=C(O)/C=C/c1ccc(O)c(O)c1 [Caffeic acid, caffeic acid]

IC50 (human thrombin [1]; [7]): > 1000 µM
Compound: O=C(/C=C/c1ccc(O)c(O)c1)O[C@@H]1C[C@](O)(C(=O)O)C[C@@H](O)[C@H]1O [Chlorogenic acid, chlorogenic acid]

IC50 (human thrombin [1]; [7]): > 1000 µM
Compound: O=C(O)/C=C/c1ccc(O)cc1 [Coumaric acid, coumaric acid]

IC50 (human thrombin [1]; [7]): > 1000 µM
Compound: COc1cc(/C=C/C(=O)O)ccc1O [Ferulic acid, ferulic acid]

IC50 (human thrombin [1]; [7]): > 1000 µM
Compound: COc1ccc([C@@H]2CC(=O)c3c(O)cc(O)cc3O2)cc1O [Hesperetin, hesperetin]

IC50 (human thrombin [1]; [7]): > 1000 µM
Compound: O=C1C[C@@H](c2ccc(O)cc2)Oc2cc(O)cc(O)c21 [Naringenin, naringenin]

IC50 (human thrombin [1]; [7]): > 1000 µM
Compound: Oc1ccc(/C=C/c2cc(O)cc(O)c2)cc1 [Resveratrol, resveratrol]
